The conditions of data set [1]: cited from earlier work.
Data set [2] can be described thus: Myelosuppression and neutropenia studies (blood CBC and differential). Format: in vivo, ICR mice. Particulars: 10 mg/kg i.v., day 3.
Experimental: Myelosuppression and neutropenia studies. […] Empty vesicles were administered as a control. CBC and differential analysis was performed at Central Labs for Veterinarians (Langley, BC) to quantify cellular levels, ratios and morphology.
In data set [3] the test system is MX-1 human breast carcinoma. In words: MX-1 human breast carcinoma xenograft (s.c.), efficacy and toxicity. Format: in vivo, nude mice. A general note: In xenograft studies the graft and the host belong to different species.
Experimental: Tumor Models. […] Human MX-1 and LX-1 cell lines were obtained from the DCTD Tumor Repository in Frederick, Md. These cell lines were received as tumor fragments and were propagated in NCr nude mice by serial transplantation of 3×3 mm fragments. Experiments were not initiated until the cell lines had been through 3 passages in nude mice and the tumor lines were restarted when the passage number reached 10.
Efficacy Studies. […] For the MX-1 and LX-1 tumor models, tumor volume was determined by repeated perpendicular measurements of tumor dimensions and using the formula: Volume (mm^3)=(L×W^2)/2
Data set [4] deals with LX-1 human lung carcinoma. In words: LX-1 human lung carcinoma xenograft (s.c.), efficacy and toxicity. Type of data set: in vivo, nude mice. Particulars: LX-1, single dose; free at evaluated doses <30 mg/kg. An excerpt: In the above formula, MTD is the maximum tolerated dose, defined as that dose that causes a mean weight loss of 20% in a group of animals; and MED is the minimal effective dose, defined as the dose that produces an optimal % T/C value of ≦40 in the solid tumor models or an % ILS of 50±10% in the survival models.

The nature of data set [5]: Pharmacokinetic and in vivo leakage studies. Particulars: plasma, ICR mice; for AUC / Cmax / clearance: mouse, iv. The method, then:
5. Pharmacokinetic and in vivo leakage studies. […] Two different drug-to-lipid ratios, i.e., 0.10 (w/w) and 0.02 (w/w), were used to examine the influence of drug-to-lipid ratio and lipid dose on drug leakage and PK behavior. Encapsulated topotecan was administered at 1 mg/kg (10 or 50 mg/kg lipid) and 5 mg/kg topotecan (50 mg/kg lipid). […] Total topotecan in blood was determined by a fluorescence assay preceded by precipitation of plasma proteins. Topotecan was quantified by spectrofluorimetry at an excitation (2.5 nm slit width) and emission wavelength (2.5 nm slit width) of 380 and 518 nm, respectively. Lipid levels in plasma were determined by liquid scintillation counting of the [^3H]-CHE label.

Where [6] appears, read: MX-1 s.c., single i.v. dose 5 mg/kg.

For orientation: AUC means concentration integrated over time. The term Cmax denotes the peak of the concentration-time curve. Usually clearance stands for a measure of how efficiently the substance is removed, as volume per time.

Read-outs that look alike come from different tables or passages of the source.

As for `CC[C@@]1(O)C(=O)OCc2c1cc1n(c2=O)Cc2cc3c(CN(C)C)c(O)ccc3nc2-1` [Free, 9-dimethylaminomethyl-10-hydroxy-camptothecin], the LD10 in data set [1] (qdx5 schedule, converted) is reported as roughly 4.7 mg/kg/dose; in data set [1] (single intravenous infusion in mice (Hycamtin product monograph)), 75 mg/M^2; in data set [1] (single intravenous infusion in mice, converted), roughly 25 mg/kg. Besides, the “differences in neutrophil, WBC and lymphocyte parameters” value in data set [2] was “No significant differences”. Besides, in data set [3] (MX-1, q7dx3, 5 or 10 mg/kg/dose), the anti-tumor activity result was “little activity”. For the same compound, the “% T/C (optimal, following final treatment)” value in data set [3] (MX-1 s.c., q7dx3, 10 mg/kg/dose i.v.) worked out at 61%; in data set [3] (setting [6]), 78%; in data set [3] (MX-1 s.c., single i.v. dose 40 mg/kg), 24%. For the same compound, the “T − C (tumor growth delay to 500 mm^3)” value in data set [3] (setting [6]) is given as 0.2 days. The “anti-tumor activity in initial single dose studies” value in data set [4] is “inactive”. Moreover, the results for the AUC in data set [5] (1 mg/kg i.v.) and in data set [5] (5 mg/kg i.v.) were 1970 ng·h/mL and 2770 ng·h/mL, respectively. The Cmax in data set [5] (1 mg/kg i.v.) amounted to 750 ng/mL; in data set [5] (5 mg/kg i.v.), 2170 ng/mL. Besides, the clearance in data set [5] (1 mg/kg i.v.) was 0.232 mL/min; in data set [5] (5 mg/kg i.v.) it was 0.827 mL/min. Moreover, the α1/2 in data set [5] (1 mg/kg i.v.) was determined as 0.14 h; in data set [5] (5 mg/kg i.v.), 0.26 h.

The values above are taken from US20060269594A1, “Liposomal antineoplastic drugs and uses thereof” (Inex Pharmaceuticals Corporation, priority 2000, published 2006).
